Laboratory results published in patent US5444077A, “Ameliorant of cerebral circulation and optical isomer of NB-818, processes for its use” (Banyu Pharmaceutical Co., Ltd., priority 1987, dated 1995).

What was measured:
vertebral artery [1] = assay: Effect to increase the blood flow of the vertebral artery in anesthetized beagle dogs (Pharmacological Test Example 1); assay type: in vivo, beagle dog
Method: (§1) Effect to increase the blood flow of the vertebral artery
(§2) A male or female beagle dog having a body weight of about 10 kg was anesthetized by subcutaneous administration of 35 mg/kg of sodium pentobarbital, and the level of anesthesia was maintained by continuous injection of from 4 to 6 mg/kg/hr of sodium pentobarbital.
(§3) The test was conducted by maintaining the blood gases under optimum conditions under artificial respiration. A drug was dissolved in a 0.9 wt % saline containing 10% by weight of polyethylene glycol and 10% by weight of ethanol, and a predetermined amount of the solution was intravenously or intraduodenally injected to the beagle dog. Then, the blood flow, the blood pressure and the heart rate were measured.
The blood flow was measured by an electromagnetic flow meter by means of blood flow probes attached to the vertebral artery and the femoral artery of the beagle dog. The blood pressure was measured by a pressure transducer connected to a canule inserted to the left femoral artery of the beagle dog.

vertebral artery [2] = assay: Effect of optical isomers to increase the blood flow of the vertebral artery in anesthetized beagle dogs (Pharmacological Test Example 6); assay type: in vivo, beagle dog; details: intravenous
Method: as §1, §2
as §3, with “intravenously” for “intravenously or intraduodenally”
The blood flow was measured by an electromagnetic flow meter by means of blood flow probes attached to the vertebral artery and the femoral artery of the beagle dog. The blood pressure was measured by a pressure transducer connected to a canule inserted to the left femoral artery of the beagle dog. Further, the heart rate was measured by a heart rate counter based on the pulse wave of blood pressure.
The levo-rotatory optical isomer of 2-carbamoyloxymethyl-4-(2,3-dichlorophenyl)-6-methyl-1,4-dihydropyridine-3,5-dicarboxylic acid 3-isopropyl ester 5-methyl ester will be hereinafter referred to simply as (-)-NB-818, and the dextro-rotatory optical isomer thereof will be referred to simply as (+)-NB-818.

vertebral artery [3] = assay: as above; assay type: in vivo, beagle dog
[4] = tested on: cerebral isochemia models of Mongolian gerbils; assay: Effect to prolong the life in the cerebral ischemia models of Mongolian gerbils (Pharmacological Test Example 4); assay type: in vivo, Mongolian gerbil; details: 0.01 mg/kg, intraperitoneal; control 100
Method: Effect to prolong the life in the cerebral isochemia models of Mongolian gerbils
A male Mongolian gerbil having a body weight of about 70 g was anesthetized by intraperitoneal administration of 70 mg/kg of ketamine hydrochloride. Then, left and right common carotid arteries were exposed and closed by scorbil clips for 20 minutes. Then, the clips were removed to regain the blood flow. Thirty minutes later, a drug dissolved in a 0.9 wt % saline containing 10% by weight of polyethylene glycol 300 and 10% by weight of ethanol, was intraperitoneally administered. The effect to prolong the life was determined by observing mortality and the neurotic symptom during 8 hours or 24 hours from the administration of the drug.

amnesia induced by ECS [5] = assay: Effect against amnesia induced by ECS, passive avoidance, post-treatment with drug administration (Pharmacological Test Example 5); assay type: in vivo, rat; details: 1 mg/kg p.o.
Description: (§4) By using male rats having a body weight of about 200 g, the antiamnesic effect was examined on the basis of one trial passive avoidance reaction as an index. Namely, a rat is put in a light chamber of an operant box comprising the light chamber and a dark chamber, and when the rat entered into the dark chamber, an electric stimulation (5 mA for 10 seconds) was applied from the floor and immediately an electric shock (30 mA, 0.75 second) (hereinafter referred to simply as ECS) was applied to the head of the rat. Two hours or 24 hours after the ECS, the rat was put in the light chamber, and the time until the rat entered from the light chamber to the dark chamber (the latent reaction time) was measured,
In a separate test, the drug was orally administered at the same time as ECS, and the latent reaction time was measured two hours later, or NB-818 was again administered 22 hours later and then the latent reaction time was measured two hours later.

[6] = tested on: cerebral regional blood flow; assay: Effect to increase the cerebral regional blood flow in rabbits (Pharmacological Test Example 2); assay type: in vivo, rabbit; details: 0.01 mg/kg, intravenous
Method: A male rabbit having a body weight of about 3 kg was immobilized by intravenous injection of gallamine (2-3 mg/kg) and secured to an apparatus for fixing the brain position. Then, platinum electrodes for measuring hydrogen gas clearance were inserted to the top of cerebral cortex, to the center of the cerebellum and to the femoral muscle, and the blood flows were measured. The drug was dissolved in a 0.9 wt % saline containing 10% by weight of polyethylene glycol and 10% by weight of ethanol, and the solution was intravenously injected.

[7] = Acute toxicity (LD50) upon oral administration to rats; details: rat, in vivo
Description: Thus, it is particularly advantageous for the treatment and prevention of the above diseases, for which continuous administration for a long period of time is obliged. Thus, its value as a pharmaceutical is very high.

[8] = tested on: cerebral regional blood flow; assay: Effect to increase the cerebral regional blood flow in monkeys (Pharmacological Test Example 3); assay type: in vivo, Rhesus monkey; details: 0.01 mg/kg, intravenous
Method: Effect to increase the cerebral regional blood flow in monkeys
A male Rhesus monkey having a body weight of from 5.0 to 11.0 kg was anesthetized with ketamine hydrochloride (1 mg/kg by intravenous injection) and sodium pentobarbital (30 mg/kg by intraperitoneal injection), and an endotracheal tube was inserted for artificial respiration. Then, the animal's head was fixed to a stereotaxic apparatus. The cerebral blood flow was calculated from the hydrogen gas clearance curve measured by means of needle type electrodes for hydrogen gas clearance inserted to the cerebral cortex after incising the head and boring a hole in the occipital lobe.
The drug was dissolved in a 0.9 wt % saline containing 10% by weight of polyethylene glycol 300 and 10% by weight of ethanol, and the solution was intravenously administered.

amnesia induced by ECS [9] = assay: Effect against amnesia induced by ECS, passive avoidance, pretreatment with drug administration (Pharmacological Test Example 5); assay type: in vivo, rat; details: 3 mg/kg p.o.; for Latent reaction time, acquisition test: control 8.6 ± 1.3; for Latent reaction time, 2 hours later: control 49.2 ± 8.1; for Latent reaction time, 2 hours later / Latent reaction time, 24 hours later: * P < 0.05 vs control; for Latent reaction time, 24 hours later: control 85.6 ± 22.0
Description: as §4
The drug was suspended in a 0.5 wt % methyl cellulose and orally administered three times at intervals of 24 hours so that the final administration was conducted one hour prior to ECS.

CCCCOC(=O)C1=C(COC(N)=O)NC(C)=C(C(=O)OC)C1c1cccc(Cl)c1Cl (stereo not shown) [Compound D, 2-Carbamoyloxymethyl-4-(2,3-dichlorophenyl)-6-methyl-1,4-dihydropyridine-3,5-dicarboxylic acid 3-butyl ester 5-methyl ester]
Change in blood pressure (vertebral artery [1]; 0.01 mg/kg iv): -14%
Change in femoral artery blood flow (vertebral artery [1]; 0.01 mg/kg iv): +13%
Change in vertebral artery blood flow (vertebral artery [1]; 0.01 mg/kg iv): +80%
Effective period (Half-life period) (vertebral artery [1]; 0.01 mg/kg iv): 44 min

COC(=O)C1=C(C)NC(COC(N)=O)=C(C(=O)OC(C)C)C1c1cccc(Cl)c1Cl (single isomer, unassigned; (-)) [(-)-NB-818, levo-rotatory optical isomer of 2-carbamoyloxymethyl-4-(2,3-dichlorophenyl)-6-methyl-1,4-dihydropyridine-3,5-dicarboxylic acid 3-isopropyl ester 5-methyl ester]
Change in femoral artery blood flow (vertebral artery [2]; 0.01 mg/kg): +3.3%
Change in heart rate (vertebral artery [2]; 0.01 mg/kg): +3.4%
Change in vertebral artery blood flow (vertebral artery [2]; 0.01 mg/kg): +123.2%
Effective period (Half-life period) (vertebral artery [2]; 0.01 mg/kg): 44 min
Change in blood pressure (vertebral artery [3]; 0.01 mg/kg, intravenous): -26.6%

CCOC(=O)C1=C(COC(N)=O)NC(C)=C(C(=O)OC)C1c1cccc(Cl)c1Cl (stereo not shown) [Compound B, 2-Carbamoyloxymethyl-4-(2,3-dichlorophenyl)-6-methyl-1,4-dihydropyridine-3,5-dicarboxylic acid 3-ethyl ester 5-methyl ester]
Change in blood pressure (vertebral artery [1]; 0.01 mg/kg iv): -14%
Change in femoral artery blood flow (vertebral artery [1]; 0.01 mg/kg iv): +16%
Change in vertebral artery blood flow (vertebral artery [1]; 0.01 mg/kg iv): +50%
Effective period (Half-life period) (vertebral artery [1]; 0.01 mg/kg iv): 36 min

COC(=O)C1=C(C)NC(COC(N)=O)=C(C(=O)OC(C)C)C1c1cccc(Cl)c1Cl (stereo not shown) [NB-818, 2-Carbamoyloxymethyl-4-(2,3-dichlorophenyl)-6-methyl-1,4-dihydropyridine-3,5-dicarboxylic acid 3-isopropyl ester 5-methyl ester]
Mortality, 0-8 hours [4]: 38.5%
Mortality, 0-24 hours [4]: 76.9%
Latent reaction time, acquisition test (amnesia induced by ECS [5]; control 9.0 ± 1.5): 8.3 ± 1.2 s
Latent reaction time, 2 hours later (amnesia induced by ECS [5]; control 30.6 ± 3.0, * P < 0.05 vs control): 88.5 ± 17.9 s
Latent reaction time, 24 hours later (amnesia induced by ECS [5]; control 42.5 ± 9.0, * P < 0.05 vs control): 111.8 ± 21.5 s
Blood flow change, cerebellum blood flow [6]: +85%
Blood flow change, cerebral blood flow [6]: +82%
Blood flow change, femoral muscle blood flow [6]: +3%
Effective period (Half-life period) [6]: 44.6 min
LD50 [7]: ≥ 3000 mg/kg
Change in blood pressure (vertebral artery [1]; 0.01 mg/kg iv): -14%
Change in femoral artery blood flow (vertebral artery [1]; 0.01 mg/kg iv): +12%
Change in vertebral artery blood flow (vertebral artery [1]; 0.01 mg/kg iv): +109%
Effective period (Half-life period) (vertebral artery [1]; 0.01 mg/kg iv): 57 min
Change in blood pressure (vertebral artery [1]; 0.1 mg/kg id (intraduodenal)): -18%
Change in femoral artery blood flow (vertebral artery [1]; 0.1 mg/kg id (intraduodenal)): +36%
Change in vertebral artery blood flow (vertebral artery [1]; 0.1 mg/kg id (intraduodenal)): +135%
Effective period (Half-life period) (vertebral artery [1]; 0.1 mg/kg id (intraduodenal)): > 300 min
influence over the blood pressure and the heart rate (vertebral artery [1]; at dose level selectively increasing vertebral artery blood flow): minimum
Change in blood pressure [8]: -20%
Change in cerebral cortex blood flow [8]: +28%
Change in heart rate [8]: +16%
Effective period (Half-life period) [8]: > 60 min
Latent reaction time, acquisition test (amnesia induced by ECS [9]): 11.4 ± 1.3 s
Latent reaction time, 2 hours later (amnesia induced by ECS [9]): 128.8 ± 21.8 s
Latent reaction time, 24 hours later (amnesia induced by ECS [9]): 189.6 ± 24.6 s

COCCOC(=O)C1=C(C)NC(C)=C(C(=O)OC(C)C)C1c1cccc([N+](=O)[O-])c1 (stereo not shown) [Nimodipine, nimodipine]
Mortality, 0-8 hours [4]: 83.3%
Mortality, 0-24 hours [4]: 91.7%
Blood flow change, cerebellum blood flow [6]: +55%
Blood flow change, cerebral blood flow [6]: +68%
Blood flow change, femoral muscle blood flow [6]: -5%
Effective period (Half-life period) [6]: 20.6 min
Change in blood pressure (vertebral artery [1]; 0.3 mg/kg id (intraduodenal)): -29%
Change in femoral artery blood flow (vertebral artery [1]; 0.3 mg/kg id (intraduodenal)): +75%
Change in vertebral artery blood flow (vertebral artery [1]; 0.3 mg/kg id (intraduodenal)): +102%
Effective period (Half-life period) (vertebral artery [1]; 0.3 mg/kg id (intraduodenal)): 150 min
Change in blood pressure (vertebral artery [3]; 0.3 mg/kg, intraduodenal): -29%
Change in femoral artery blood flow (vertebral artery [3]; 0.3 mg/kg, intraduodenal): +75%
Change in heart rate (vertebral artery [3]; 0.3 mg/kg, intraduodenal): -23%
Change in vertebral artery blood flow (vertebral artery [3]; 0.3 mg/kg, intraduodenal): +102%
Effective period (Half-life period) (vertebral artery [3]; 0.3 mg/kg, intraduodenal): 150 min
Latent reaction time, acquisition test (amnesia induced by ECS [9]): 9.6 ± 1.3 s
Latent reaction time, 2 hours later (amnesia induced by ECS [9]): 103.9 ± 22.2 s
Latent reaction time, 24 hours later (amnesia induced by ECS [9]): 132.1 ± 25.5 s

COC(=O)C1=C(C)NC(COC(N)=O)=C(C(=O)OC)C1c1cccc(Cl)c1Cl (stereo not shown) [Compound A, 2-Carbamoyloxymethyl-4-(2,3-dichlorophenyl)-6-methyl-1,4-dihydropyridine-3,5-dicarboxylic acid 3,5-dimethyl ester]
Change in blood pressure (vertebral artery [1]; 0.01 mg/kg iv): -13%
Change in femoral artery blood flow (vertebral artery [1]; 0.01 mg/kg iv): +14%
Change in vertebral artery blood flow (vertebral artery [1]; 0.01 mg/kg iv): +76%
Effective period (Half-life period) (vertebral artery [1]; 0.01 mg/kg iv): 9 min

COC(=O)C1=C(C)NC(C)=C(C(=O)OCCN(C)Cc2ccccc2)C1c1cccc([N+](=O)[O-])c1 (stereo not shown) [Nicardipine, nicardipine]
Mortality, 0-8 hours [4]: 83.3%
Mortality, 0-24 hours [4]: 91.7%
Change in blood pressure [8]: -24%
Change in cerebral cortex blood flow [8]: +16%
Change in heart rate [8]: +18%
Effective period (Half-life period) [8]: < 30 min

COC(=O)C1=C(C)NC(COC(N)=O)=C(C(=O)OC(C)C)C1c1cccc(Cl)c1Cl (single isomer, unassigned; (+)) [(+)-NB-818]
Change in femoral artery blood flow (vertebral artery [2]; 0.1 mg/kg): +18.8%
Change in heart rate (vertebral artery [2]; 0.1 mg/kg): +3.8%
Change in blood pressure (vertebral artery [3]; 0.1 mg/kg, intravenous): -8.1%
Change in vertebral artery blood flow (vertebral artery [3]; 0.1 mg/kg, intravenous): +56.8%
Effective period (Half-life period) (vertebral artery [3]; 0.1 mg/kg, intravenous): 15.5 min

CCCOC(=O)C1=C(COC(N)=O)NC(C)=C(C(=O)OC)C1c1cccc(Cl)c1Cl (stereo not shown) [Compound C, 2-Carbamoyloxymethyl-4-(2,3-dichlorophenyl)-6-methyl-1,4-dihydropyridine-3,5-dicarboxylic acid 3-propyl ester 5-methyl ester]
Change in blood pressure (vertebral artery [1]; 0.01 mg/kg iv): -15%
Change in femoral artery blood flow (vertebral artery [1]; 0.01 mg/kg iv): +20%
Change in vertebral artery blood flow (vertebral artery [1]; 0.01 mg/kg iv): +95%
Effective period (Half-life period) (vertebral artery [1]; 0.01 mg/kg iv): 42 min
